The target in assay [1] is T1, CCK-2 receptor (Cavia porcellus, UniProt H0VZC5).
T1 construct: The incubation of the cerebral membranes together with the radioactive tracers and the compounds under study; from tissue; host or cells: cerebral cortex membranes of male albino Hartley guinea pigs
T1 sequence (H0VZC5 1-426): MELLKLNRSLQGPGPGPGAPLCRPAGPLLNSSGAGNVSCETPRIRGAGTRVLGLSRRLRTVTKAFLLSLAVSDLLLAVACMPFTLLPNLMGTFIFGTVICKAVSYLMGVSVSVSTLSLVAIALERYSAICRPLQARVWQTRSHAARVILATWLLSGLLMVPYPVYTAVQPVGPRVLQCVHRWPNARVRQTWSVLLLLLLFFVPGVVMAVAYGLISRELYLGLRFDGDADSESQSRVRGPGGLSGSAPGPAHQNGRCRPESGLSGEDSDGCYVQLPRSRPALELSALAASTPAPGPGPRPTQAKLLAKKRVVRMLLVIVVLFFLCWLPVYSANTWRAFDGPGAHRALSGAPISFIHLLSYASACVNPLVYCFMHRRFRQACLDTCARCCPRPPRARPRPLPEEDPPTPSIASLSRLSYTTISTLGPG
Briefly: Inhibition of the binding of [125I]-BH-CCK-8 to the cortical membrane of guinea pigs. On the set-up: species or system guinea pig. As to conditions: 120 minutes at 25° C.; 25 pM marked binder; at least 3 tests. As for the experimental part: (§1) For this purpose binding tests were performed on cerebral cortex of male albino guinea pigs outbred from the Hartley strain, using as marked binder the [^125I]-BH-CCK-8 sulphate, according to the procedure described by Makovec F. [J. Med. Chem. 35, (1992),28].
(§2) The incubation of the cerebral membranes together with the radioactive tracers and the compounds under study was effected on multi-well plates for 120 minutes at 25° C. Each well contained membrane corresponding to about 0.5 mg of proteins/ml and 25 pM of marked binder in a total volume of 250 micro litres. The specific binding was determined as the difference between the binding in the absence and in the presence of CCK-8, 1.10^−6M. At the end of the incubation a rapid filtration of the plate was performed under vacuum and the radioactivity of the individual filters extracted from the wells was measured with a γ-emission counter. The results obtained are shown in Table 3, in which the tested compounds are indicated, the IC50 calculated with the regression method on a set of at least 3 tests for each compound studied and an index derived from the ratio of the affinity obtained for the two types of receptor CCK-2 and CCK-1.

The test system of assay [2] is CCK-2 receptor. Described as above. More on the design: species or system guinea pig. As to conditions: IC50 CCK-2 (guinea pig cortex) / IC50 CCK-1 (rat pancreatic acini, Table 2). As for the experimental part:
as §1, §2

A further assay deals with T2, CCK-1 receptors (Rattus norvegicus, UniProt P30551).
T2 construct: The pancreatic acini obtained from the outbred male rat pancreas of the Sprague Dawley strain; from tissue; host or cells: isolated pancreatic acini of male Sprague Dawley rats
T2 sequence (P30551 1-444): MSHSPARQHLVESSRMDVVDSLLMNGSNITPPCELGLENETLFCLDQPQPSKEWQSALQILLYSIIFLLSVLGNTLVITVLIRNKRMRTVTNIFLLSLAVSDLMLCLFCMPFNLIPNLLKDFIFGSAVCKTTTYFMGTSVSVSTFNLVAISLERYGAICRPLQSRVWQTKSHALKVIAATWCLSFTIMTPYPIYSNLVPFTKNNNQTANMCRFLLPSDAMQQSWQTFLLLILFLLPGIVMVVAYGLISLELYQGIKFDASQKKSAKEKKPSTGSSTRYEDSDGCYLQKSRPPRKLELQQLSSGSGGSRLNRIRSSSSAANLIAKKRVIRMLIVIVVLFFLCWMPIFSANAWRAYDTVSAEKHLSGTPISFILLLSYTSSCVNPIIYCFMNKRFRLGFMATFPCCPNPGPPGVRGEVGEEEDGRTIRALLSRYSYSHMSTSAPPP
Nature of the assay: Inhibition of binding of [125I]-BH-CCK-8 to isolated rat pancreatic acini. The note with it: for affinity for the CCK-1 receptors of the pancreatic acini of rat, in words: summary of Table 2. How it is done: The pancreatic acini obtained from the outbred male rat pancreas of the Sprague Dawley strain, were incubated in the presence of radioactive tracers and the compound studied for 30 minutes at 37° C. After having discarded the supernatant, the radioactivity associated with the pellet was determined with a liquid scintillator. The specific binding was determined as the difference between the binding in the absence and in the presence of CCK-8, 1.10^−6M. […] The values of IC50 reported were calculated with the […] of a set of at least 3 experiences for each compound studied.

Assay [3] concerns the target T3, CCK-1 (guinea pig gall bladder) (Cavia porcellus, UniProt Q63931).
T3 construct: A guinea pig gall bladder stimulated in vitro by CCK-8; from tissue; host or cells: isolated guinea pig gall bladder
T3 sequence (Q63931 1-430): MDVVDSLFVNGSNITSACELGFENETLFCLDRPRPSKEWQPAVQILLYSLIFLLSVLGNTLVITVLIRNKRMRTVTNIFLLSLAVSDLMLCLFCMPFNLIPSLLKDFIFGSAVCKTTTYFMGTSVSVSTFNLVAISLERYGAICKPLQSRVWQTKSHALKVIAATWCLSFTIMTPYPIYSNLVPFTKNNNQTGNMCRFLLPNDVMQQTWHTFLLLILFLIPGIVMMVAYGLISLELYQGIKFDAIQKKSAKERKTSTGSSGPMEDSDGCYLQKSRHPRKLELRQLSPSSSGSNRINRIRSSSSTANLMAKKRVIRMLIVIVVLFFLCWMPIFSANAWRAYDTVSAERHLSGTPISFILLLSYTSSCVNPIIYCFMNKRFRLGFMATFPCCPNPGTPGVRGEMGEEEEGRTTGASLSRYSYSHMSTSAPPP
Briefly: Inhibition of the in vitro CCK-8 induced contraction of guinea pig gall bladder. It counts as cell-based. The note with it: CCK-8 5 ng/ml; average of at least two experiments, 6-8 concentrations. An excerpt: A guinea pig gall bladder stimulated in vitro by CCK-8 according to the method described by Makovec et al. was used as an experimental model. [Arzneim. Forsch. Drug Res. 35 (7), 1048 (1985)]. The results thus obtained are illustrated in the following Table 4 in which the values of IC50 (moles/litre) are reported.

Where [4] appears, read: 30 minutes at 37° C., at least 3 experiments, read-out: IC50, inhibition of binding of [125I]-BH-CCK-8 to isolated rat pancreatic acini.

pIC50: −log10 of the molar value. Read-outs that look alike come from different tables or passages of the source. Where only a bound is given, the exact number is not on record here.

Usually pIC50 stands for the negative decadic logarithm of the IC50, by convention in mol/L. Regarding `O=C(Nc1ccccc1C(=O)NC(CCc1ccccc1)C(=O)O)c1cc2ccccc2[nH]1` (centres unmarked) [Compound 20], the pIC50 was 5.65 on CCK-2 receptor [1], 7.85 at CCK-1 receptors and 7.46 in assay [3]. For the same molecule, the “index derived from the ratio of the affinity obtained for the two types of receptor CCK-2 and CCK-1” value (shortened to “index derived from the ratio”) with CCK-2 receptor [2] is given as 158.6.
For the molecule `Cc1ccccc1CCC(NC(=O)c1ccccc1NC(=O)c1cc2cc(F)ccc2[nH]1)C(=O)O` (centres unmarked) [Compound 26], the pIC50 at CCK-2 receptor [1] was 5.29; on CCK-1 receptors (setting [4]), 8.05; in assay [3], 7.37. For the same molecule, the “index derived from the ratio” value with CCK-2 receptor [2] was found to be 572.2. Further, at CCK-1 receptors, the “affinity for the CCK-1 receptors of the pancreatic acini of rat, in words” value (“affinity for the CCK-1 receptors” below) was “nanomolar level”.
On to `Cc1ccccc1CCC(NC(=O)c1ccccc1NC(=O)c1cc2ccccc2[nH]1)C(=O)O` (centres unmarked) [Compound 25], for which the values for the pIC50 (on CCK-2 receptor [1]; at CCK-1 receptors (setting [4]); in assay [3]) were < 4.52, 8.15 and 8.10, respectively. For the same molecule, the “index derived from the ratio” value in the assay on CCK-2 receptor [2] is >4286. Besides, the “affinity for the CCK-1 receptors” value at CCK-1 receptors is “nanomolar level”.
On to `COc1cccc(CCC(NC(=O)c2ccccc2NC(=O)c2cc3ccccc3[nH]2)C(=O)O)c1` (centres unmarked) [Compound 31], for which the pIC50 was 5.47 at CCK-2 receptor [1] and 8.00 at CCK-1 receptors (setting [4]). Also, the “index derived from the ratio” value in the assay with CCK-2 receptor [2] was 340.
In the case of `O=C(Nc1ccccc1C(=O)N[C@H](CCc1ccccc1)C(=O)O)c1cc2ccccc2[nH]1` [Compound 21], the figures for the pIC50 (on CCK-2 receptor [1]; at CCK-1 receptors; in assay [3]) were 5.42, 8.05 and 7.70, respectively. For the same molecule, the “index derived from the ratio” value with CCK-2 receptor [2] is on record as 422.2. Also, the “affinity for the CCK-1 receptors” value on CCK-1 receptors is “nanomolar level”.
With `CCCCCC(NC(=O)c1ccccc1NC(=O)c1cc2ccccc2[nH]1)C(=O)O` (centres unmarked) [Compound 38], the pIC50 at CCK-2 receptor [1] is < 4.52; on CCK-1 receptors (setting [4]) it was 8.00. In the assay with CCK-2 receptor [2], the “index derived from the ratio” value was >3000.
For `CCCCCCC(NC(=O)c1ccccc1NC(=O)c1cc2ccccc2[nH]1)C(=O)O` (centres unmarked) [Compound 39], in that order: < 4.52, 7.70 and >1500.
With `COc1ccccc1CCC(NC(=O)c1ccccc1NC(=O)c1cc2ccccc2[nH]1)C(=O)O` (centres unmarked) [Compound 30], the negative-log IC50 (pIC50) is 5.46 at CCK-2 receptor [1], 8.10 on CCK-1 receptors (setting [4]) and 7.52 in assay [3]. Moreover, the “index derived from the ratio” value in the assay with CCK-2 receptor [2] worked out at 437.5. Further, the “affinity for the CCK-1 receptors” value at CCK-1 receptors is listed as “nanomolar level”.
The like results for `O=C(Nc1ccccc1C(=O)NC(CCc1ccccc1)C(=O)O)c1cc2cc(F)ccc2[nH]1` (centres unmarked) [Compound 23] were, in that order, 4.97, 8.15, 7.82, 1542.9 and “nanomolar level”.

Source of the values: US7294648B2, “Anthranyl derivatives having an anticholecystokinin activity (anti-cck-1), a process for their preparation, and pharmaceutical use thereof” (Rottapharm S.p.A., priority 2002, dated 2007).
